Like-named read-outs stand apart in the source and are kept apart here.
Experiments:
[1] = test system: Human Umbilical Vein Endothelial Cells (HUVECs); test: HUVEC growth inhibition (CellTiter-Blue, 96 h); type: cell-based; settings: 96 hour treatment
Description: HUVECs were plated in triplicate in 96-well plates at a density of 1,000 cells/well in 75 μL. After 24 h, compounds were serially diluted in medium and delivered to cells as 4× solutions in 25 μL (0.1% DMSO final for assay). 96 h after compound addition, CellTiter-Blue (Promega) was added to the wells, plates were incubated at 37° C. for 90 min, and fluorescence (555 nm excitation; 580 nm emission) was detected using a SPECTRAmax M3. IC50 was determined by fitting the data to a four-parameter dose-response curve using GraphPad Prism 5.0.

MV4;11 = test: Cell growth assay, MV4;11 AML cell line; type: cell-based, human
Description: (§1) For all other cell lines, compounds were serially diluted in medium and dispensed in triplicate in 96-well plates (0.1% DMSO final for assay) followed by the addition of exponentially growing cells at densities ranging from 5,000 to 30,000 cells/well. Cells were also seeded into 2 additional control wells containing vehicle (0.1% DMSO). […] To determine the estimated cell number in each well, cells that were counted in the control well were diluted 3-fold for an 8-point dilution series, and transferred to 384-well plates in duplicate, 20 μL per well. Cells in all other wells were diluted 4-fold and transferred to 384-well plates in duplicate, 20 μL per well. 20 μL of CellTiter-Glo (Promega) was subsequently added to all wells and luminescence was detected using a SPECTRAmax M3. The control well dilution series was fit to a linear regression and used as a standard for calculating the estimated cell number for each well. For days 7 and 10, total estimated cell number represents the split-adjusted theoretical cell number.

MOLM-14 = test: Cell growth assay, MOLM-14 AML cell line; type: cell-based, human
Description: as §1

SET-2 = test: Cell growth assay, SET-2 cell line; type: cell-based; settings: Homo sapiens, SET-2, 240 h; read-out: SET-2 GI50 day 10
Description: (§2) For all other cell lines, compounds were serially diluted in medium and dispensed in triplicate in 96-well plates (0.1% DMSO final for assay) followed by the addition of exponentially growing cells at densities ranging from 5,000 to 30,000 cells/well. Cells were also seeded into 2 additional control wells containing vehicle (0.1% DMSO). After 3 days, the number of viable cells in one of the control wells was counted by hemocytometer or MOXI Z (Orflo) and an equal volume of cells for all wells were split-back with fresh vehicle/compounds such that the resulting seeding density for the control well was 5,000-30,000 cells/well, matching the initial seeding density in that well. This procedure was repeated on day 7 and day 10. % growth was calculated as % growth=100×(total estimated cell number in well−day 0 starting cell number)/(total average vehicle estimated cell number−day 0 starting cell number). To determine the estimated cell number in each well, cells that were counted in the control well were diluted 3-fold for an 8-point dilution series, and transferred to 384-well plates in duplicate, 20 μL per well. Cells in all other wells were diluted 4-fold and transferred to 384-well plates in duplicate, 20 μL per well. 20 μL of CellTiter-Glo (Promega) was subsequently added to all wells and luminescence was detected using a SPECTRAmax M3. The control well dilution series was fit to a linear regression and used as a standard for calculating the estimated cell number for each well. For days 7 and 10, total estimated cell number represents the split-adjusted theoretical cell number.

[2] = Pharmacokinetic study of 14A in male CD-1 mice; type: in vivo; settings: CD-1, mouse, blood
Description: For pharmacokinetic studies with (14A), (14A) was formulated in 20% hydroxypropyl-beta-cyclodextrin (HPCD) and male CD-1 mice were given a single dose of 14A at 3 mg/kg i.p. and intravenous (i.v.) and 10 mg/kg oral (p.o.). Prior to dosing, mice were fasted overnight until 4 hours post-dosing. Blood samples were collected at the indicated timepoints and analyzed by HPLC/MS/MS to evaluate the concentration of (14A).

K562 = test: Cell growth assay, K562 cell line; type: cell-based, human; settings: day 10; lack of activity is taken as evidence of on-target selectivity
Description: as §2

[3] = Pharmacokinetic study of cortistatin A in CD-1 mice; type: in vivo, CD-1 mice; settings: for Cmax: mouse, in vivo, ip
Wnt/beta-catenin pathway = test: Wnt/beta-catenin reporter assay (SuperTOPflash luciferase, HEK293STF); type: cell-based; settings: 24 hour treatment with Wnt3A or 10 μM azakenpaullone; read-out: IC50, inhibition of luciferase expression
Description: Exponentially growing HEK293STF were plated in triplicate in 96-well plates at a density of 5,000 cells/well in 75 μL. […] Additional triplicate control wells on each plate had media without cells or cells without azakenpaullone. For experiments with Wnt3A conditioned media, after 24 h, compounds were serially diluted in Wnt3A conditioned media as 1× solutions (0.1% DMSO final). Old media was removed from the cells and replaced with the compound/Wnt3A-media. Additional triplicate control wells on each plate had media without cells or cells that were treated with L-conditioned media (no Wnt3A). After 24 h, the CellTiter-Fluor and Steady-Glo assays (Promega) were subsequently performed in series to determine viability and luminescence, respectively, in each well (measurements made on a SPECTRAmax M3, Molecular Devices). Graphs were made in Prism 5 (GraphPad Software, Inc.) with nonlinear regression fit to a sigmoidal dose-response curve (variable slope).

[4] = test system: SET-2 subcutaneous xenograft; test: SET-2 subcutaneous xenograft model; type: in vivo, SCID Beige mice; settings: 0.16 mg kg-1 daily, n=10, P<0.001
Description: (§3) Efficacy studies using the MV4;11 xenograft model were performed as previously described. See, e.g., Etchin et al., Leukemia (2013) 27, 66-74. Briefly, 2 million MV4;11 mCLP cells were introduced into 7-week-old female NOD-SCID-IL2Rcγ^null (NSG) mice (The Jackson Laboratory) via tail vein injection. The tumor burden was assessed by bioluminescence imaging (BLI) using an IVIS Spectrum system (Caliper Life Sciences). […] At 30 days post-treatment start date, 3 mice per group were sacrificed and blood counts were obtained using Hemavet 950 F instrument (Drew Scientific) and spleen, femur, and peripheral blood cells were collected and analyzed by flow cytometry (LSR Fortessa, BD Biosciences). The mice and a portion of the spleen were also preserved in bouins for histopathology. Mice were sectioned, paraffin-embedded and stained with hematoxylin and eosin. Survival of the drug-treated mice was measured as the time from initiation of therapy until moribund state. Survival benefit was assessed by Kaplan-Meier analysis. […] 2 h after the last dose, the mice were sacrificed, blood counts were obtained, blood chemistry was analyzed and the mice were fixed with bouins for histopathology. […] Once tumors reached an average size of 80-120 mm^3, the mice were treated with vehicle or 0.16 mg kg^−1 daily for the duration of the study.

MV4;11 AML cells = test: MV4;11 disseminated leukemia mouse model of AML; type: in vivo, NOD-SCID-IL2Rcγnull (NSG) mice; settings: 0.05 and 0.16 mg/kg once daily for 15 days
Description: as §3

[5] = test system: MPLW515L-transduced bone marrow; test: Murine model of primary myelofibrosis (MPLW515L); type: in vivo, mice
[6] = Safety testing in healthy CD-1 mice; type: in vivo; settings: 0.16 mg kg-1 once daily for 15 days, 2 hours after last dose
Description: as §3

[7] = test system: STAT1 pS727 (CDK8 module kinase activity) in HepG2 cells; test: IFN-γ-stimulated STAT1 S727 phosphorylation, western blot; type: cell-based, human; settings: 1 hour compound then 1 hour IFN-γ; STAT1 pY701 and total STAT1 unaltered
Description: CDK8 has been reported to […] interferon gamma-stimulated phosphorylation of STAT1 S727. See, e.g., Bancerek et al., Immunity (2013) 38:250-262. […] The cells were lysed and probed by western blot.
(§4) For STAT1 studies, MOLM-14 cells were treated with vehicle (0.1% DMSO) or compound for 1 h followed by the addition of IFNγ (Life Technologies, PHC4031) for 1 h. Cells were then collected, washed twice with cold PBS and snap frozen in liquid nitrogen. For all Western blotting, whole-cell lysates were prepared in RPA buffer (Sigma-Aldrich, R0278) with phosphatase and protease inhibitor additives (Sigma-Aldrich, P8340, P0044, P5762) and protein concentration was determined by BCA assay (Thermo Scientific, 23225). RIPA extracts were resolved by denaturing polyacrylamide gel electrophoresis (Life Technologies, NuPAGE) and transferred to PVDF membrane (Millipore) using the Mini Trans-Blot system (BioRad). The membranes were probed as recommended by the antibody manufacturers and proteins detected by chemiluminescence using horseradish peroxidase-conjugated secondary antibodies. For SMAD2/3 studies, HaCaT cells were treated as described for STAT1 with the addition of TGFβ1 (R&D Systems) in place of IFNγ.

[8] = test system: SMAD2/3 phosphorylation in HaCat cells; test: TGF-beta-stimulated SMAD2/3 phosphorylation, western blot; type: cell-based; settings: 1 hour compound then 1 hour TGF-beta
Description: as §4

BCL2L11 expression = test: BCL2L11 mRNA levels in MV4;11 and MOLM-14 cells; type: cell-based, human; settings: 24 h treatment
[9] = test system: Human Umbilical Vein Endothelial Cells (HUVECs); settings: less potent than cortistatin A; Aoki et al. 2007; cited from earlier work
[10] = Homo sapiens, MV4-11, 240 h, day 10, cells passaged, fresh compound added on days 3 and 7, read-out: MV 4;11 GI50 day 10
[11] = Homo sapiens, MOLM-14, 240 h, day 10, cells passaged, fresh compound added on days 3 and 7, read-out: MOL M14 G150 day 10

C[C@]12CC=C3C=C4[C@@H](O)[C@H](O)[C@@H]([N+](C)(C)[O-])CC45CC[C@]3(O5)[C@@H]1CC[C@@H]2c1ccc2ccncc2c1 [cortistatin A N-oxide, Cortistatin A N-oxide]
inhibition of HUVEC proliferation compared with cortistatin A [1]: equipotent

C[C@]12CC=C3C=C4CC[C@@H](N5CCCC5)C[C@]45CC[C@]3(O5)[C@@H]1CC[C@@H]2c1ccc2ccncc2c1 [19A, α-pyrrolidine]
GI50 (MV4;11; [10]): 1.5 nM
GI50 (MOLM-14; [11]): 5 nM
GI50 (SET-2): 0.4 nM

C[C@]12CC=C3C=C4CC[C@@H](N5CCOCC5)C[C@]45CCC3(O5)[C@@H]1CC[C@@H]2c1ccc2ccncc2c1 [15A, α-morpholine]
GI50 (MV4;11; [10]): 2.5 nM
GI50 (MOLM-14; [11]): 20 nM
GI50 (SET-2): 8 nM

CN(C)[C@@H]1CCC2=CC3=CC[C@]4(C)[C@@H](c5ccc6ccncc6c5)CC[C@H]4C34CC[C@]2(C1)O4 [14A, α-dimethylamine]
clearance ([2]; 3 mg/kg IV): 29 mL/min/kg
Cmax ([2]; 10 mg/kg PO in 20% HPCD, after 2 hours, read-out: Cmax after oral dosing): 255 ng/mL
half-life ([2]; 10 mg/kg PO in 20% HPCD, read-out: T1/2 after oral dosing (converted)): ~300 min
concentration at 24 h ([2]; 10 mg/kg PO, 24 h, read-out: oral C24 trough concentration): 14.2 ng/mL
bioavailability ([2]; ip, 3 mg/kg, 3 mg/kg IP, read-out: IP bioavailability): 95%
Vd ([2]; iv, 3 mg/kg, 3 mg/kg IV, read-out: Vss): 11.7 L/kg
bioavailability ([2]; oral, 10 mg/kg, 10 mg/kg PO vs 3 mg/kg IV, read-out: oral bioavailability): 44%

C[C@]12CC=C3C=C4CC[C@@H](N)CC45CC[C@]3(O5)[C@@H]1CC[C@@H]2c1ccc2ccncc2c1 [62A, α-primaryamine]
GI50 (MV4;11; [10]): 0.4 nM
GI50 (MOLM-14; [11]): 5 nM
GI50 (SET-2): 0.45 nM

cortistatin A [CA]
GI50 (MV4;11; day 7, fresh compound added on day 3, read-out: MV4;11 GI50 day 7): 9 nM
GI50 (MV4;11; day 10, cells passaged, fresh compound added on days 3 and 7, read-out: MV 4;11 GI50 day 10): 4 nM
GI50 (MOLM-14; day 7, fresh compound added on day 3, read-out: MOL M14 GI50 day 7): 9 nM
GI50 (MOLM-14; day 10, cells passaged, fresh compound added on days 3 and 7, read-out: MOL M14 G150 day 10): 5 nM
GI50 (K562): > 1000 nM
calculated T1/2 ([3]; 10 mg/kg IP in 10% DMSO/phosphate buffered saline pH6, male CD-1 mice): 6.06 h
Cmax ([3]; 1 mg/kg): 762 nM
Cmax ([3]; 10 mg/kg, pH 6): 1400 nM
calculated T1/2 between 0.5-2 h ([3]; single IP injection 1 mg/kg in 20% HPCD, male CD-1 mice): 33 min
IC50 (Wnt/beta-catenin pathway): 1.5 nM
tumor growth inhibition [4]: 68%
efficacy (bioluminescence, survival, spleen and bone marrow burden) (MV4;11 AML cells): effective
mean body weight (MV4;11 AML cells; n=11): did not decrease
spleen weights ([5]; 0.31 mg/kg and 0.62 mg/kg i.p. once daily, after 6 doses): significant reduction
allele burden (GFP percentage in peripheral blood) ([5]; after 4 doses of daily treatment): significant reduction
complete blood count (CBC) vs vehicle [6]: no significant differences
inhibition of IFN-γ-stimulated increase in STAT1 pS727 [7]: potently inhibited
TGF-beta-stimulated SMAD2/3 phosphorylation [8]: dose-dependently inhibited
mRNA levels of BCL2L11 (BCL2L11 expression): dose-dependently increases

cortistatin J
potency at inhibiting HUVEC proliferation relative to cortistatin A [9]: 8 fold

CN[C@@H]1CCC2=CC3=CC[C@]4(C)C(c5ccc6ccncc6c5)CC[C@H]4C34CC[C@]2(C1)O4 (stereo partly drawn) [24A, α-monomethylamine]
GI50 (MV4;11; [10]): 1 nM
GI50 (MOLM-14; [11]): 18 nM
GI50 (SET-2): 0.5 nM
